Data taken from patent EP3255116A1, “COMPOSITIONS COMPRISING A FLUOROOLEFIN” (The Chemours Company FC, LLC, priority 2005, dated 2006).

Columns and labels:
[1] = Kinematic viscosity of lactone compatibilizers; type: physicochemical; conditions: at 40°C
Description: Lactone compatibilizers generally have a kinematic viscosity of less than about 7 centistokes at 40°C. […] Lactone compatibilizers may be available commercially or prepared by methods as described in U. S. patent application 10/910,495 filed August 3, 2004, incorporated herein by reference.

[2] = Flammability test ASTM E681-01, lower and upper flammability limit in air (Example 6); type: physicochemical; conditions: 50 percent relative humidity; for LFL: lower flammability limit; for LFL / UFL: ASTM E681-01, 101 kPa (14.7 psia), 100 °C (212 °F); for UFL: upper flammability limit; for flammability: ASTM E681-01, 101 kPa, 100 °C
Description: Flammable compounds may be identified by testing under ASTM (American Society of Testing and Materials) E681-01, with an electronic ignition source. Such tests of flammability were conducted on HFC-1234yf, HFC-1225ye and a mixture of the present disclosure at 101 (kPa (14.7 psia), 100 °C (212 °F), and 50 percent relative humidity, at various concentrations in air in order to determine the lower flammability limit (LFL) and upper flammability limit (UFL). The results are given in […]. TABLE 14

CCCCCC[C@H]1C[C@@H](C)OC1=O (relative stereo) [cis-(3-hexyl-5-methyl)dihydrofuran-2-one]
kinematic viscosity [1]: 4.5 centistokes

FC=C(F)C(F)(F)F [HFC-1225ye (100wt%)]
LFL [2]: Non-flammable
UFL [2]: Non-flammable

FC=C(F)C(F)(F)F [HFC-1225ye, 1,2,3,3,3-pentafluoropropene]
flammability [2]: reduces the flammability

C=C(F)C(F)(F)F [HFC-1234yf (100 wt%)]
LFL [2]: 5.0 vol % in air
UFL [2]: 14.5 vol % in air

C=C(F)C(F)(F)F [HFC-1234yf, 2,3,3;3-tetrafluoropropene]
flammability [2]: flammable
